Results: patent US7718768B2, “Biologically active peptide [sequence]” (CMS Peptides Patent Holding Company Limited, priority 2001, dated 2010)
Marks after values point to notes of the source that are not given here. No end group written: not given here.

B1: IFN-γ: recombinant mouse interferon-γ, Beijing Biotech Inc.; positive control immunostimulant (protein, UniProt P01580 23-155, looked up)
Interferon gamma: HGTVIESLESLNNYFNSSGIDVEEKSLFLDIWRNWQKDGDMKILQSQIISFYLRLFEVLKDNQAISNNISVIESHLITTFFSNSKAKKDAFMSIAKFEVNNPQVQRQAFNELIRVVHQLLPESSLRKRKRSRC

Test system: anti-SRBC antibody
Assay: Sheep Red Blood Cell (SRBC) hemolysis test, anti-SRBC antibody formation
Type: in vivo, BALB/c mice
Conditions: peptide 0.5 μg/kg/day i.p. 15 days, SRBC on day 12; IFN-γ and IL-2 groups 3×10^5 IU/kg/day; X ± SD
How it was run: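 Mice got test substances plus 0.2 ml SRBC i.p. on day 12; serum taken day 16, diluted 500-fold, mixed with 2% SRBC and guinea pig complement, 10 min at 37 °C. Lysis read as OD540nm after Drabkin's, indexed against a reference SRBC OD540nm.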

Molecule	anti-SRBC antibody formation (sample serum index)
LRVAPEEHPTL [CMS009]	2 ± 1* Unit
Tyr Ser Leu (YSL; listed as Sus scrofa) [CMS024]	98 ± 6*^@^ Unit
VGMGQKDSY [CMS019]	12 ± 3* Unit
RVAPEEHPTL [CMS011]	5 ± 3* Unit
VAPEEHPTLLTEAPLNPK [CMS010]	10 ± 3* Unit
Pro Glu Asn Phe (PENF; listed as Sus scrofa) [CMS034]	20 ± 2* Unit
FNFVPP [CMS003]	2 ± 1* Unit
PSIVGRPRHQGVM [CMS015]	13 ± 4* Unit
B1	37 ± 10 Unit

Same assay, conditions: peptide 5 μg/kg/day i.p. 15 days, SRBC on day 12; IFN-γ and IL-2 groups 3×10^5 IU/kg/day; X ± SD

Molecule	anti-SRBC antibody formation (sample serum index)
PTTKTYFPHF [CMS001]	110 ± 24*^@ Unit
LRVAPEEHPTL [CMS009]	79 ± 18*^@ Unit
Tyr Ser Leu (YSL; listed as Sus scrofa) [CMS024]	171 ± 39*^@^ Unit
VGMGQKDSY [CMS019]	118 ± 20*^@^ Unit
Phe Glu Glu Glu (FEEE; listed as Sus scrofa) [CMS032]	157 ± 37*^@^ Unit
RVAPEEHPTL [CMS011]	115 ± 27*^@^ Unit
Phe Val Asn Asp (FVND; listed as Sus scrofa) [CMS035]	176 ± 39*^@^ Unit
Pro Glu Asn Phe (PENF; listed as Sus scrofa) [CMS034]	172 ± 37*^@^ Unit
FNFVPP [CMS003]	91 ± 24*^@ Unit
IGMESAGIHETTY [CMS016]	93 ± 32*^@ Unit
PSIVGRPRHQGVM [CMS015]	94 ± 37*^@ Unit
KAVGHLDDLPGAL [CMS008]	97 ± 26*^@ Unit
B1	37 ± 10 Unit

Same assay, conditions: peptide 50 μg/kg/day i.p. 15 days, SRBC on day 12; IFN-γ and IL-2 groups 3×10^5 IU/kg/day; X ± SD

Molecule	anti-SRBC antibody formation (sample serum index)
LRVAPEEHPTL [CMS009]	13 ± 5* Unit
Phe Glu Glu Glu (FEEE; listed as Sus scrofa) [CMS032]	131 ± 24*^@^ Unit
RVAPEEHPTL [CMS011]	67 ± 9*^@ Unit
Phe Val Asn Asp (FVND; listed as Sus scrofa) [CMS035]	97 ± 10*^@^ Unit
Pro Glu Asn Phe (PENF; listed as Sus scrofa) [CMS034]	136 ± 11*^@^ Unit
FNFVPP [CMS003]	52 ± 11* Unit
PSIVGRPRHQGVM [CMS015]	54 ± 9*^@ Unit
B1	37 ± 10 Unit

Same assay, conditions: peptide 500 μg/kg/day i.p. 15 days, SRBC on day 12; IFN-γ and IL-2 groups 3×10^5 IU/kg/day; X ± SD

Molecule	anti-SRBC antibody formation (sample serum index)
LRVAPEEHPTL [CMS009]	113 ± 22*^@^ Unit
Tyr Ser Leu (YSL; listed as Sus scrofa) [CMS024]	75 ± 29*^@ Unit
VGMGQKDSY [CMS019]	91 ± 26*^@ Unit
RVAPEEHPTL [CMS011]	188 ± 16*^@^ Unit
Phe Val Asn Asp (FVND; listed as Sus scrofa) [CMS035]	88 ± 16*^@ Unit
VAPEEHPTLLTEAPLNPK [CMS010]	112 ± 30*^@^ Unit
FNFVPP [CMS003]	96 ± 18*^@ Unit
IGMESAGIHETTY [CMS016]	143 ± 38*^@^ Unit
PSIVGRPRHQGVM [CMS015]	136 ± 22*^@^ Unit
KAVGHLDDLPGAL [CMS008]	82 ± 15*^@ Unit
B1	37 ± 10 Unit

Test system: not listed separately
Assay: immunity organ weight test (thymus gland index, spleen index)
Type: in vivo, BALB/c mice
Conditions: peptide 0.5 μg/kg/day i.p. 15 days; IFN-γ and IL-2 groups 3×10^5 IU/kg/day; X ± SD
How it was run: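 Substances in saline given i.p. once daily for 15 days; on day 16 liver, spleen and thymus excised, blotted and weighed. Thymus and spleen indices = organ weight/body weight ×100%; phagocytosis index α from body weight and liver-plus-spleen weight.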

Molecule	weight of spleen (spleen index)	weight of thymus gland (thymus gland index)
PTTKTYFPHF [CMS001]	0.40 ± 0.05 %	
Phe Glu Glu Glu (FEEE; listed as Sus scrofa) [CMS032]		0.21 ± 0.06 %
VAPEEHPTLLTEAPLNPK [CMS010]		0.21 ± 0.03 %
KAVGHLDDLPGAL [CMS008]		0.22 ± 0.07*^ %
B1	0.50 ± 0.04%	0.15 ± 0.04%

Same assay, conditions: peptide 5 μg/kg/day i.p. 15 days; IFN-γ and IL-2 groups 3×10^5 IU/kg/day; X ± SD

Molecule	weight of thymus gland (thymus gland index)
PTTKTYFPHF [CMS001]	0.22 ± 0.05 %
Tyr Ser Leu (YSL; listed as Sus scrofa) [CMS024]	0.23 ± 0.06*^ %
VGMGQKDSY [CMS019]	0.24 ± 0.02*^@^ %
Phe Glu Glu Glu (FEEE; listed as Sus scrofa) [CMS032]	0.29 ± 0.04*^@^ %
RVAPEEHPTL [CMS011]	0.22 ± 0.04 %
Phe Val Asn Asp (FVND; listed as Sus scrofa) [CMS035]	0.21 ± 0.04 %
VAPEEHPTLLTEAPLNPK [CMS010]	0.27 ± 0.05*^@^ %
Pro Glu Asn Phe (PENF; listed as Sus scrofa) [CMS034]	0.27 ± 0.06*^@^ %
IGMESAGIHETTY [CMS016]	0.22 ± 0.06 %
PSIVGRPRHQGVM [CMS015]	0.20 ± 0.08 %
B1	0.15 ± 0.04%

Same assay, conditions: peptide 5 μg/kg/day i.p. 15 days; X ± SD

Molecule	weight of spleen (spleen index)
PSIVGRPRHQGVM [CMS015]	0.38 ± 0.15 %

Same assay, conditions: peptide 50 μg/kg/day i.p. 15 days; IFN-γ and IL-2 groups 3×10^5 IU/kg/day; X ± SD

Molecule	weight of thymus gland (thymus gland index)	weight of spleen (spleen index)
Tyr Ser Leu (YSL; listed as Sus scrofa) [CMS024]	0.27 ± 0.02*^@^ %	
VGMGQKDSY [CMS019]	0.20 ± 0.03*^@^ %	
Phe Glu Glu Glu (FEEE; listed as Sus scrofa) [CMS032]	0.27 ± 0.03*^@^ %	
VAPEEHPTLLTEAPLNPK [CMS010]		0.38 ± 0.05 %
Pro Glu Asn Phe (PENF; listed as Sus scrofa) [CMS034]	0.19 ± 0.04*^ %	
IGMESAGIHETTY [CMS016]	0.20 ± 0.03*^@^ %	
KAVGHLDDLPGAL [CMS008]	0.20 ± 0.04*^@^ %	0.39 ± 0.08 %
B1	0.15 ± 0.04%	0.50 ± 0.04%

Same assay, conditions: peptide 500 μg/kg/day i.p. 15 days; IFN-γ and IL-2 groups 3×10^5 IU/kg/day; X ± SD

Molecule	weight of thymus gland (thymus gland index)
VGMGQKDSY [CMS019]	0.19 ± 0.02 %
Phe Glu Glu Glu (FEEE; listed as Sus scrofa) [CMS032]	0.25 ± 0.03*^@^ %
VAPEEHPTLLTEAPLNPK [CMS010]	0.19 ± 0.04 %
Pro Glu Asn Phe (PENF; listed as Sus scrofa) [CMS034]	0.20 ± 0.05*^ %
IGMESAGIHETTY [CMS016]	0.18 ± 0.05 %
KAVGHLDDLPGAL [CMS008]	0.21 ± 0.03*^@^ %
B1	0.15 ± 0.04%

Same assay, conditions: peptide 500 μg/kg/day i.p. 15 days; X ± SD

Molecule	weight of spleen (spleen index)
PTTKTYFPHF [CMS001]	0.43 ± 0.07 %
LRVAPEEHPTL [CMS009]	0.41 ± 0.03 %
Tyr Ser Leu (YSL; listed as Sus scrofa) [CMS024]	0.34 ± 0.05 %
VGMGQKDSY [CMS019]	0.63 ± 0.08 %
RVAPEEHPTL [CMS011]	0.41 ± 0.04 %
FNFVPP [CMS003]	0.40 ± 0.04 %
PSIVGRPRHQGVM [CMS015]	0.36 ± 0.07 %

Test system: NK cell
Assay: NK cell cytotoxicity activity test (YAC-1 target cells, MTT) on spleen cells of treated mice
Type: in vivo, BALB/c mice
Conditions: peptide 0.5 μg/kg/day i.p. 15 days; IFN-γ and IL-2 groups 3×10^5 IU/kg/day; X ± SD
How it was run: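 Mice (ten per group) dosed i.p. once daily for 15 days in 0.5 ml saline; spleens taken the next day, erythrocytes lysed with Tris-NH4Cl. Spleen cells (4×10^6/ml) mixed with YAC-1 targets (1×10^5/ml) in triplicate per mouse. Viability by MTT, 4 h at 37° C., OD570nm referenced at 630 nm.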

Molecule	NK cell cytotoxic activity (NK cell activity index)
RVAPEEHPTL [CMS011]	79 ± 3 %
Phe Val Asn Asp (FVND; listed as Sus scrofa) [CMS035]	76 ± 10 %
KAVGHLDDLPGAL [CMS008]	46 ± 12 %
B1	72 ± 9 %

Same assay, conditions: peptide 5 μg/kg/day i.p. 15 days; IFN-γ and IL-2 groups 3×10^5 IU/kg/day; X ± SD

Molecule	NK cell cytotoxic activity (NK cell activity index)
LRVAPEEHPTL [CMS009]	92 ± 6*^@^ %
Tyr Ser Leu (YSL; listed as Sus scrofa) [CMS024]	78 ± 3 %
RVAPEEHPTL [CMS011]	76 ± 10 %
VAPEEHPTLLTEAPLNPK [CMS010]	82 ± 9 %
Pro Glu Asn Phe (PENF; listed as Sus scrofa) [CMS034]	90 ± 5 %
KAVGHLDDLPGAL [CMS008]	92 ± 4*^@^ %
B1	80 ± 8 %

Same assay, conditions: peptide 50 μg/kg/day i.p. 15 days; IFN-γ and IL-2 groups 3×10^5 IU/kg/day; X ± SD

Molecule	NK cell cytotoxic activity (NK cell activity index)
PTTKTYFPHF [CMS001]	85 ± 10 %
Phe Val Asn Asp (FVND; listed as Sus scrofa) [CMS035]	72 ± 9 %
FNFVPP [CMS003]	85 ± 6 %
PSIVGRPRHQGVM [CMS015]	78 ± 8 %
B1	73 ± 10 %

Same assay, conditions: peptide 500 μg/kg/day i.p. 15 days; IFN-γ and IL-2 groups 3×10^5 IU/kg/day; X ± SD

Molecule	NK cell cytotoxic activity (NK cell activity index)
Tyr Ser Leu (YSL; listed as Sus scrofa) [CMS024]	89 ± 8 %
Phe Glu Glu Glu (FEEE; listed as Sus scrofa) [CMS032]	87 ± 5 %
Phe Val Asn Asp (FVND; listed as Sus scrofa) [CMS035]	90 ± 10 %
VAPEEHPTLLTEAPLNPK [CMS010]	91 ± 4*^@^ %
IGMESAGIHETTY [CMS016]	91 ± 7*^@^ %
B1	77 ± 8 %
